Assays:
Format in all cases: biochemical
Wild-type cruzipain = Wild-type cruzipain (Trypanosoma cruzi, UniProt P25779); assay: Trypanosoma cruzi cruzipain peptidase activity assay (Ki); conditions: read-out: Ki, inhibitors of cruzain and cruzipains
Method in brief: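 Native cruzipain from T. cruzi Dm28 epimastigotes, 2.5 nM, in 100 mM sodium phosphate pH 6.75 with 1 mM EDTA and 10 mM L-cysteine, 25 °C, DMSO <1%. Rates taken from continuous fluorogenic substrate read; Ki by regression assuming reversible pure-competitive inhibition.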

Bovine cathepsin S = biological target: T1, Bovine cathepsin S (Bos taurus, UniProt P25326); assay: Cathepsin S peptidase activity assay, bovine enzyme (Ki); conditions: species of cathepsin S not given; read-out: Ki, inhibitors of cathepsin S
T1 construct: purchased CN Biosciences
T1 sequence (P25326 115-331): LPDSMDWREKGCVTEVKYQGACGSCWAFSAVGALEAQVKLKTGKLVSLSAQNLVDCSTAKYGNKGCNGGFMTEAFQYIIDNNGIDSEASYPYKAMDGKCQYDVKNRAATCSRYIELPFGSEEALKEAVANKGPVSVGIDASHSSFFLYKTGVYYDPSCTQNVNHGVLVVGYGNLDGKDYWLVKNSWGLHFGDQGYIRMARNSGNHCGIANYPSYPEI
Method in brief: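 Bovine cathepsin S activity followed by fluorescence increase from substrate conversion to product over time, enzyme added to start the reaction, at 25±1° C. Buffer 10 mM bis-tris-propane pH 6.5 with 1 mM EDTA, 5 mM 2-mercaptoethanol, 1 mM CaCl2; DMSO kept below 1% (vol./vol.).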

CPB2.8ΔCTE = biological target: T2, CPB2.8ΔCTE (Leishmania mexicana, UniProt P36400); assay: Leishmania mexicana cysteine protease B (CPB) peptidase activity assay (Ki); conditions: Ki, inhibitors of Leismania mexicana CPB protease
T2 construct: Wild-type recombinant CPB without the C-terminal extention (i.e. CPB2.8ΔCTE); Dr. Jeremy Mottram (Wellcome Centre for Molecular Parasitology, University of Glasgow)
T2 sequence (P36400 126-343, stated change not applied): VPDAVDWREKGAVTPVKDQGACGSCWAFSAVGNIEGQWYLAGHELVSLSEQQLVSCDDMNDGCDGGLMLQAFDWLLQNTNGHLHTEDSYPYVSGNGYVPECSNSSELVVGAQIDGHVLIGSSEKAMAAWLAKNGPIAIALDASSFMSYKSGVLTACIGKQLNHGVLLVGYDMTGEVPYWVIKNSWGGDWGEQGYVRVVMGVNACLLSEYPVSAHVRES
Method in brief: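 Apparent Ki was derived by regression of activity against inhibitor concentration, assuming pure-competitive reversible binding. Reaction: 0.25 nM CPB lacking the C-terminal extension, pH 5.5 acetate buffer (1 mM EDTA, 200 mM NaCl, 10 mM DTT), 25 °C, followed by continuous substrate fluorescence.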

human cathepsin B = biological target: T3, human cathepsin B (Homo sapiens, UniProt P07858); assay: Cathepsin B peptidase activity assay (Ki); conditions: read-out: Ki, inhibitors of cathepsin B
T3 construct: purchased CN Biosciences
Method in brief: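 Buffer: 10 mM bis-tris-propane pH 6.5, 1 mM EDTA, 5 mM 2-mercaptoethanol, 1 mM CaCl2; DMSO <1%. Ki assumed reversible, pure-competitive, from Ki^app=Ki(1+[So]/KM^app) by non-linear regression.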

Measured: Ki

Sequence of Wild-type cruzipain (P25779 whole entry): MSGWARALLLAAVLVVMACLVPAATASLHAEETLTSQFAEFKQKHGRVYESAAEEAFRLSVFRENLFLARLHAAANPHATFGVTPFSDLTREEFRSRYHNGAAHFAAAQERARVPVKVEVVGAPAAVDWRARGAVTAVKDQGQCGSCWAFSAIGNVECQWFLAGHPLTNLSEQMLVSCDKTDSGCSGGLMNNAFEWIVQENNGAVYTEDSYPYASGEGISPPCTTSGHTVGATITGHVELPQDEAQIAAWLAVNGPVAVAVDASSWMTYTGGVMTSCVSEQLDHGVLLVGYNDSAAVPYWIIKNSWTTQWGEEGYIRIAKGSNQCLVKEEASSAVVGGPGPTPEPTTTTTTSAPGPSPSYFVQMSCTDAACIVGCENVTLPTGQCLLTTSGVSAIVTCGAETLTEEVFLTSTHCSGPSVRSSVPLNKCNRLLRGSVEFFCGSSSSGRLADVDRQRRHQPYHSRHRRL

CC(C)C[C@H](NC(=O)c1ccc(Oc2ccccc2)cc1)C(=O)N1CC[C@@H]2[C@H]1C(=O)CN2C(=O)c1ccccc1 [Example 39, (3aR,6aS)-N-[(1S)-1-(4-Benzoyl-6-oxo-hexahydro-pyrrolo[3,2-b]pyrrole-1-carbonyl)-3-methyl-butyl]-4-phenoxy-benzamide]
< 5 µM: all assays above

CC(C)C[C@H](NC(=O)c1ccc(N)cc1)C(=O)N1CC[C@@H]2[C@H]1C(=O)CN2C(=O)c1cccc(S(C)(=O)=O)c1 [Example 61, (3aR,6aS)-4-Amino-N-{(1S)-1-[4-(3-methanesulfonyl-benzoyl)-6-oxo-hexahydro-pyrrolo[3,2-b]pyrrole-1-carbonyl]-3-methyl-butyl}-benzamide]
< 5 µM: Wild-type cruzipain | Bovine cathepsin S | human cathepsin B

O=C(N[C@@H](Cc1ccc(O)cc1)C(=O)N1CC[C@@H]2[C@H]1C(=O)CN2C(=O)c1ccccc1)c1cccc(Br)c1 [Example 298, (3aR,6aS)-N-[(1S)-2-(4-Benzoyl-6-oxo-hexahydro-pyrrolo[3,2-b]pyrrol-1-yl)-1-(4-hydroxy-benzyl)-2-oxo-ethyl]-3-bromo-benzamide]
< 5 µM: Wild-type cruzipain | Bovine cathepsin S | human cathepsin B

Nc1ccc(C(=O)N2CC(=O)[C@@H]3[C@H]2CCN3C(=O)[C@H](Cc2ccc(O)cc2)NC(=O)c2cccc(Br)c2)cc1 [Example 310, (3aR,6aS)-N-[(1S)-2-[4-(4-Amino-benzoyl)-6-oxo-hexahydro-pyrrolo[3,2-b]pyrrole-1-yl]-1-(4-hydroxy-benzyl)-2-oxo-ethyl]-3-bromo-benzamide]
< 5 µM: Bovine cathepsin S | human cathepsin B

Cc1cccc(C[C@H](NC(=O)C(c2ccccc2)c2ccccc2)C(=O)N2CC[C@@H]3[C@H]2C(=O)CN3C(=O)c2csc3ccccc23)c1 [Example 314]
< 5 µM: all assays above

O=C(N[C@@H](Cc1cccc(F)c1)C(=O)N1CC[C@@H]2[C@H]1C(=O)CN2C(=O)c1csc2ccccc12)C(c1ccccc1)c1ccccc1 [Example 315, (3aR,6aS)-N-[(1S)-2-[4-(Benzo[b]thiophene-3-carbonyl)-6-oxo-hexahydro-pyrrolo[3,2-b]pyrrole-1-yl]-1-(3-fluoro-benzyl)-2-oxo-ethyl]-2,2-diphenyl-acetamide]
< 5 µM: all assays above

O=C(N[C@@H](Cc1cc(F)cc(F)c1)C(=O)N1CC[C@@H]2[C@H]1C(=O)CN2C(=O)c1csc2ccccc12)C(c1ccccc1)c1ccccc1 [Example 316, (3aR,6aS)-N-[(1S)-2-[4-(Benzo[b]thiophene-3-carbonyl)-6-oxo-hexahydro-pyrrolo[3,2-b]pyrrole-1-yl]-1-(3,5-difluoro-benzyl)-2-oxo-ethyl]-2,2-diphenyl-acetamide]
< 5 µM: all assays above

O=C(N[C@@H](Cc1ccc(O)cc1)C(=O)N1CC[C@@H]2[C@H]1C(=O)CN2C(=O)c1csc2ccccc12)c1cccc(Br)c1 [Example 323, (3aR,6aS)-N-[(1S)-2-[4-(Benzo[b]thiophene-3-carbonyl)-6-oxo-hexahydro-pyrrolo[3,2-b]pyrrole-1-yl]-1-(4-hydroxy-benzyl)-2-oxo-ethyl]-3-bromo-benzamide]
< 5 µM: Wild-type cruzipain | Bovine cathepsin S | human cathepsin B

O=C(N[C@@H](Cc1ccc(O)cc1)C(=O)N1CC[C@@H]2[C@H]1C(=O)CN2C(=O)c1csc2ccccc12)C(c1ccccc1)c1ccccc1 [Example 329, (3aR,6aS)-N-[(1S)-2-[4-(Benzo[b]thiophene-3-carbonyl)-6-oxo-hexahydro-pyrrolo[3,2-b]pyrrole-1-yl]-1-(4-hydroxy-benzyl)-2-oxo-ethyl]-2,2-diphenyl-acetamide]
< 5 µM: all assays above

O=C(N[C@@H](Cc1ccc(O)cc1)C(=O)N1CC[C@@H]2[C@H]1C(=O)CN2C(=O)c1ccccc1)C(c1ccccc1)c1ccccc1 [Example 330, (3aR,6aS)-N-[(1S)-2-(4-Benzoyl-6-oxo-hexahydro-pyrrolo[3,2-b]pyrrol-1-yl)-1-(4-hydroxy-benzyl)-2-oxo-ethyl]-2,2-diphenyl-acetamide]
< 5 µM: all assays above
